One data set addresses Calpain II. Briefly: Calpain II KI (Table 1B(ii)). In kind it is biochemical. The source says:
(§1) We tested the ability of an additional group of Peptide Keto-Compounds to inhibit several proteases in order to evaluate their specificity for Calpain.

For the next data set, the target named is Chym (Bos taurus, UniProt P00766). Kind of data set: Chym KI (Table 1B(ii)). In kind it is biochemical.
Description: as §1

The target of a further data set is PP Elastase (Sus scrofa, UniProt P00772). Briefly: PP Elastase KI (Table 1B(ii)). The data set is classed as biochemical.
Description: as §1

Another data set is described as follows: Stability in plasma. In kind it is in vitro ADME. The following applies: unit assumed. The source says: We determined the haft-life of several Peptide Keto-Compounds in both plasma and liver homogenates.
A further data set has as its system Calpain within platelets. Briefly: Platelet membrane permeation assay, spectrin proteolysis (Examples 4A, 4B). In kind it is cell-based, rat. The following applies: for inhibition of Calpain within platelets: 100 μM, A23187 1 μM; for IC50: concentration at which 50% of the Calpain activation present in controls occurred. Here is the method: Platelets were isolated by a modification of the method of Ferrell and Martin, J Biol. Chem., 264:20723-20729 (1989), the disclosure of which is hereby incorporated by reference. Blood (15-20 ml) was drawn from male Sprague-Dawley rats into 100 mM EDTA-citrate containing 10 units heparin, and centrifuged 30 minutes at 1600 rpm at room temperature. The plasma was resuspended in 15 ml buffer 1 (136 mM NaCl, 2.7 mM KCl, 0.42 mM NaH2 PO4, 12 mM NaHCO3, 2 mM MgCl2, 2 mg/ml BSA (Sigma), 5.6 mM glucose, 22 mM Na3 Citrate pH 6.5) and platelets were isolated at 2200 rpm at room temperature of 25 minutes. Platelets were resuspended to 10^7 cells/ml in buffer 2 (136 mM NaCl, 2.7 mM KCl, 0.42 NaH2 PO4, 12 mM NaHCO3, 2 mM MgCl, 1 mg/ml BSA, 5.6 mM glucose, 20 mM HEPES pH 7.4) and allowed to "rest" for a minimum of 10 minutes at room temperature before use.
Platelets were incubated for 5 minutes in the presence of inhibitor. In order to provide sufficient intracellular calcium to activate Calpain, the calcium ionophore A23187 was added to a final concentration of 1 μM. After a further 5 minute incubation, the platelets were harvested by centrifugation (1 min 10,000×g) and resuspended in 10% sodium dodecyl sulfate, 10 mM Tris pH=8.0, 5% β-mercaptoethanol, 0.02% bromophenol blue, and heated to 95° C. for 5 min. Samples were subjected to SDS-PAGE on 6% mini gels and transferred to nitrocellulose (Schleicher and Schuell BAS3) for 2 hours at 100 mA/gel in an LKB Novablot. Filters were blocked for 10 minutes in 0.25% gelatin, 1% BSA, 0.25% Triton X100, 0.9% NaCl, 10 mM Tris-Cl pH 7.5, incubated overnight in the same solution containing antibody to rat spectrin, washed 3×10 minutes with 10 mM Tris-Cl pH 7.5, 0.5 % Triton X100, incubated 4 hours in wash buffer plus alkaline phosphatase conjugated goat anti-rabbit antibody (Biorad), and washed as above. Filters were developed using the Biorad AP conjugate substrate kit. Spectrin immunoreactivity on the filters was quantitated by densitometry.

Data set [1] relates to Calpain in crude brain extracts. Briefly: Ca2+-stimulated spectrin proteolysis in crude brain extracts (Example 2). The settings on record: 100 μM. In kind it is biochemical. Here is the method: The activity of Calpain in crude brain extracts was measured by examining the Ca^2+ -stimulated proteolysis of the endogenous substrate spectrin. Brain tissue was homogenized in 10 mM Tris pH=7.4, 0.32M sucrose, 1 mM EGTA, 1 mM dithiothreitol and the nuclei and debris removed by low speed centrifugation. […] Proteolysis of spectrin was evaluated by western blot as described by Seubert, et at. (Brain Research, 459:226-232, 1988), the disclosure of which is hereby incorporated by reference. Briefly, a known quantity of a spectrin-containing sample treated with Calpain is separated by SDS-PAGE and immunoblotted with anti-spectrin antibody. The amount of spectrin immunoreactivity found corresponding to the characteristic BDP's is indicative of the amount of […] activity present in the sample. An examplary method for quantitating BDP's is to assay Spectrin BDP's by homogenizing brain parts in 20 mM Tris pH=7.2, 0.32M sucrose, 50 μM Ac-Leu-Leu-nLeu-H on ice. Homogenates are then mixed 1:1 with 10% SDS, 5% β-mercaptoethanol, 10% glycerol, 10 mM Tris pH=8.0, 0.5% bromophenolblue, heated to 95° C., and subjected to electrophoresis in 41/2% polyacrylamide gels. The proteins in the gels are transferred to nitrocellulose and the spectrin and BDP's detected using a rabbit polyclonal anti-spectrin antibody and established immunodetection methods. The amount of spectrin and BDP's in each sample can be quantitated by densitrometric scanning of the developed nitrocellulose.

Another data set concerns the target Cathepsin B (Bos taurus, UniProt P07688). Kind of data set: Cathepsin B KI (Table 1B(ii)). The following applies: read-out: KI CathB. The data set is classed as biochemical.
Description: as §1

Where a SMILES comes first, the peptide text is derived from it. The star is where a group is joined. CH2Cl = ClC*

Sequence of PP Elastase (P00772 27-266): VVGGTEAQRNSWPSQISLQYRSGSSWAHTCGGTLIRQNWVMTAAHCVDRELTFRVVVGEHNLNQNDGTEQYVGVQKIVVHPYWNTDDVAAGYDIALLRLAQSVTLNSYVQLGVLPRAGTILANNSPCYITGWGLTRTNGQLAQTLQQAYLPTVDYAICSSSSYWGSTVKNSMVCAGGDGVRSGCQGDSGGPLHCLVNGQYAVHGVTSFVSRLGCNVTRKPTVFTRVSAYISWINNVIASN

On to `CCOC(=O)C(=O)[C@H](CC)NC(=O)[C@H](CC(C)C)NC(=O)[C@H](CC(C)C)NC(=O)c1ccc2ccccc2c1` [2-NapCO-Leu-Leu-Abu-COOEt], for which the Ki is 90 nM on Calpain II, more than 300000 nM at Chym and 28000 nM at PP Elastase. In addition, in the data set “Stability in plasma”, the t1/2 plasma came to 0.417 h.
`CCOC(=O)C(=O)C(CC)NC(=O)C(CC(C)C)NS(=O)(=O)c1ccc2ccccc2c1` (stereo not drawn) [2-NapSO2 -Leu-Abu-COOEt]: the “inhibition of Calpain within platelets” value in the data set with Calpain within platelets is on record as “significant inhibition”.
As to `O=c1oc(Cl)c(Cl)c2ccccc12` [3,4-dichloroisocoumarin, reference compound], the “inhibition of spectrin proteolysis in crude brain extracts” value (from here on “inhibition of spectrin proteolysis”) in data set [1] is “significant inhibition”.
In the case of `O=c1oc(OCc2ccccc2)c(Cl)c2ccccc12` [3-benzyloxy-4-chloroisocoumarin], the “inhibition of spectrin proteolysis” value in data set [1] is reported as “significant inhibition”.
With `O=c1oc(Cl)cc2ccccc12` [3-chloroisocoumarin, reference compound], in data set [1], the “inhibition of spectrin proteolysis” value is on record as “significant inhibition”. Further, the “inhibition of Calpain within platelets” value in the data set with Calpain within platelets was “significant inhibition”.
For `N=C(N)SCCCOc1oc(=O)c2cc(NC(=O)CCc3ccccc3)ccc2c1Cl` [7-(3-phenylpropionylamino)-4-chloro-3-(3-isothiureidopropoxy)isocoumarin], in data set [1], the “inhibition of spectrin proteolysis” value is recorded as “significant inhibition”. In the data set with Calpain within platelets, the “inhibition of Calpain within platelets” value is given as “significant inhibition”.
On to `CCCOc1oc(=O)c2cc(NC(C)=O)ccc2c1Cl` [7-(acetylamino)-4-chloro-3-(propoxy)-isocoumarin], for which the “inhibition of spectrin proteolysis” value in data set [1] is “significant inhibition”.
With `N=C(N)SCCCOc1oc(=O)c2cc(NC(=O)Cc3ccccc3)ccc2c1Cl` [7-(phenylacetylamino)-4-chloro-3-(3-isothiureidopropoxy)isocoumarin], the “inhibition of spectrin proteolysis” value in data set [1] is listed as “significant inhibition”. Moreover, the “inhibition of Calpain within platelets” value in the data set on Calpain within platelets is reported as “significant inhibition”.
For `N=C(N)SCCOc1oc(=O)c2cc(NC(=O)Nc3ccccc3)ccc2c1Cl` [7-(phenylcarbamoylamino)-4-chloro-3-(2-isothiureidoethoxy)isocoumarin], the “inhibition of spectrin proteolysis” value in data set [1] was “significant inhibition”. Also, the “inhibition of Calpain within platelets” value in the data set on Calpain within platelets is “significant inhibition”.
Regarding `N=C(N)SCCCOc1oc(=O)c2cc(NC(=O)Nc3ccccc3)ccc2c1Cl` [7-(phenylcarbamoylamino)-4-chloro-3-(3-isothiureidopropoxy)isocoumarin], the “inhibition of spectrin proteolysis” value in data set [1] is given as “significant inhibition”. Moreover, the “inhibition of Calpain within platelets” value in the data set with Calpain within platelets is on record as “significant inhibition”.
With `CC(=O)NC(C(=O)NC(Cc1ccccc1)C(=O)CCl)C(C)C` (stereo not drawn) [Ac-Val-Phe-CH2Cl] (Ac-Val-Phe-CH2Cl; configuration not given here), the “inhibition of spectrin proteolysis” value in data set [1] is “significant inhibition”.
Molecule `CCOC(=O)C(=O)C(CC)NC(=O)C(CC(C)C)NC(=O)C(C)(C)c1ccccc1` (stereo not drawn) [Ph-(CH3)2 -CO-Leu-Abu-COOEt] displayed a Ki on Calpain II of 1200 nM.
Take `CC[C@H](NC(=O)[C@H](CC(C)C)NC(=O)OCc1ccccc1)C(=O)C(=O)NCCc1ccccc1` [Z-Leu-Abu-CONH-(CH2)2 -Ph, Z-Leu-Abu-CONH-(CH2)2 Ph]: affinity on Calpain II was put at a Ki of 22 nM.
On the same count and under the same terms, in the case of `CCC(NC(=O)C(CC(C)C)NC(=O)OCc1ccccc1)C(=O)C(=O)NCCO` (stereo not drawn) [Z-Leu-Abu-CONH-(CH2)2 OH] it was 78 nM; in that of `CC[C@H](NC(=O)[C@H](CC(C)C)NC(=O)OCc1ccccc1)C(=O)C(=O)NCCCN1CCOCC1` [Z-Leu-Abu-CONH-(CH2)3 -Mpl, Z-Leu-Abu-CONH--(CH2)3 -N(CH2 CH2)2 O], 41 nM.
Turning to `CCCCCCCCNC(=O)C(=O)[C@H](CC)NC(=O)[C@H](CC(C)C)NC(=O)OCc1ccccc1` [Z-Leu-Abu-CONH-(CH2)7 CH3, Z-Leu-Abu-CONH--(CH2)7 CH3], the Ki at Calpain II was 19 nM.
In the case of `CCC(NC(=O)C(CC(C)C)NC(=O)OCc1ccccc1)C(=O)C(=O)NCC(C)C` (stereo not drawn) [Z-Leu-Abu-CONHiBu, Z-Leu-Abu-CONH-iBu], the Ki at Calpain II was 140 nM; at Cathepsin B it was 4000 nM; at Chym, more than 300000 nM; on PP Elastase, 40000 nM. Further, the t1/2 plasma in “Stability in plasma” is more than 1 h. The molecule further came in with a 50% inhibitory concentration (IC50) with Calpain within platelets of 28000 nM.
Regarding `CCOC(=O)C(=O)C(CC)NC(=O)C(CC(C)C)NC(=O)C(CC(C)C)NC(=O)OCc1ccccc1` (stereo not drawn) [Z-Leu-Leu-Abu-COOEt], the Ki at Calpain II was 2600 nM; on Cathepsin B, 22000 nM; on Chym, more than 100000 nM; on PP Elastase, 25000 nM. In addition, the “inhibition of Calpain within platelets” value in the data set on Calpain within platelets is given as “significant inhibition”. The same molecule yielded an IC50 in the data set with Calpain within platelets of 40000 nM.
For `CC(C)C[C@H](NC(=O)OCc1ccccc1)C(=O)N[C@@H](Cc1ccccc1)C(=O)C(=O)NCCc1ccccc1` [Z-Leu-Phe-CONH(CH2)2 Ph, Z-Leu-Phe-CONH-(CH2)2 Ph], the results for the Ki at Calpain II and on Chym were 24 nM and 2000 nM, respectively. Further, in “Stability in plasma”, the t1/2 plasma is more than 1 h. Further, in the data set with Calpain within platelets, the midpoint of inhibition, the IC50, lay at 3000 nM.
On to `CC(C)C[C@H](NC(=O)OCc1ccccc1)C(=O)N[C@@H](Cc1ccccc1)C(=O)C(=O)NCc1ccccc1` [Z-Leu-Phe-CONHBz, Z-Leu-Phe-CONH-Bzl], for which the Ki at Calpain II is 46 nM.
On to `CC(C)CNC(=O)C(=O)[C@H](Cc1ccccc1)NC(=O)[C@H](CC(C)C)NC(=O)OCc1ccccc1` [Z-Leu-Phe-CONHiBu, Z-Leu-Phe-CONH-iBu], for which the Ki at Calpain II is 65 nM; at Cathepsin B, 4000 nM; on Chym, 24000 nM. The molecule further returned a t1/2 plasma in the data set “Stability in plasma” of more than 1 h. Also, in the data set on Calpain within platelets, the midpoint of inhibition, the IC50, lay at 22000 nM.
With Z-Leu-Abu, the “inhibition of Calpain within platelets” value in the data set with Calpain within platelets is on record as “significant inhibition”.

The values above are taken from US5444042A, “Method of treatment of neurodegeneration with calpain inhibitors” (Cortex Pharmaceuticals, priority 1994, dated 1995).
